These results are taken from US5888994A, “Fluorinated Vitamin D3 analogs” (Hoffmann-La Roche Inc., priority 1997, dated 1999).

The subject of one data set is HaCaT cells. Nature of the data set: Inhibition of keratinocyte proliferation (3H-thymidine uptake, HaCaT). It is filed as cell-based. The conditions noted are these: HaCaT human keratinocyte line, 6 days of culture. As for the experimental part:
HaCaT cell line--The immortalized human cell line HaCaT was used. ^3 H-thymidine incorporation was measured in exponentially growing cultures after 6 days of culture in presence of the test compound.
Cell culture--HaCaT cells were cultured in Dulbecco's Modified Eagle Medium (DMEM) and Nutrient Mixture Ham's F12 (F12), 3:1 (v/v, ICN) containing 4.5 g/l glucose and supplemented with 10% fetal calf serum (Gibco, FCS), L-glutamine (Gibco, 2mM), penicillin (Gibco, 50 UI/ml), streptomycin (Gibco, 50 μg/ml), EGF (10 ng/ml), hydrocortisone (400 ng/ml), cholera toxin (8.5 ng/ml) and insulin (5 ng/ml). The cells were maintained in a humidified atmosphere containing 5% CO2 and 95% air and passaged every 3-4 days.
Inhibition of ^3 H-thymidine uptake--HaCaT cells (250 cells in complete culture medium) were seeded into 96-well culture dishes and incubated at 37° C. with 5% CO2 and 95% air for 6 days. Inhibitors, dissolved at 10× concentration in 1% ethanol, were added immediately at the beginning of the assay. ^3 H-thymidine (5 Ci/mmol, Amersham) was added at a concentration of 1 μCi/well and cells were pulse-labelled for the last 6 hours of the growth period. Cells were then trypsinized for 10 minutes at 37° C. under a vigorous agitation and harvested on to a 96-well GF/C filter plate (Uni Filter, Packard) using a Micro Mate 196 cell harvester (Packard). After drying at 40° C. under vacuum for 20-30 minutes, 2 μl of Micro Scint 0 scintillator (Packard) were added and the radioactivity bound to the filters was counted on a TOP COUNT (Packard).

For the next data set, the system named is HL-60 cells. The experiment in a line: HL-60 cell differentiation (oxidative burst via NBT reduction). It is filed as cell-based. The conditions noted are these: Homo sapiens, 72 h, 3 days, NBT reduction at 540 nm, mean of 3 wells, read-out: ED50 (concentration leading to 50% of maximal differentiation achieved with 100-1000 nM calcitriol). The procedure: The induction of differentiation of HL-60 cells was assayed by measuring their oxidative burst potential via the reduction of NBT (Nitrobluetetrazolium).
30,000 cells/90 μl of RPMI/FCS were seeded into flat-bottomed microtiter wells. 10 μl of vitamin D derivatives diluted in complete medium were added at the same time to yield final concentrations between 10^-11 and 10^-6 M (stock solutions of 10^-2 M in ethanol were kept at -20° C. and protected from light).
Values were expressed as percent of maximal differentiation achieved with 100-1000 nM calcitriol in the same experiment.

Data set [1] in a line: Calcium liability (tolerance test in mice). The conditions noted are these: mouse, in vivo, sc, daily subcutaneous administration for 4 consecutive days, 5 day treatment period, read-out: HTD (highest tolerated dose: dose which results in zero weight gain). The source says: Profound changes in calcium homeostasis strongly affect the weight development of the animals. This parameter was used as a primary test for tolerance.
Mice (25-30 g body weight) received daily subcutaneous administrations of the vitamin D derivative for 4 consecutive days. Body weight was registered just before and at the end of a […] treatment period. The "highest tolerated dose" (HTD) is the dose which results in zero weight gain during this treatment period.

The next data set relates to sebaceous cells. The experiment in a line: Inhibition of human sebocyte proliferation in vitro. Type of data set: cell-based. As to conditions: tested at 10^-6, 10^-7 and 10^-8 M, vs vehicle-treated culture, read-out: ED50 (amount of compound necessary to inhibit the proliferation of sebaceous cells by 50%). The procedure: Sebaceous cells were isolated from adult human sebaceous glands by a combination of enzymatic and mechanical methods (Doran et al., Characterization of Human Cells In Vitro, J. Invest. Dermatol. 96:34-8 (1991)). The cells were cultured in Iscove's medium containing 10% fetal calf serum and 4 μg/ml dexamethasone on a layer of growth-arrested 3T3 mouse fibroblasts. Cells were plated in medium without the test compound and then given test compound in fresh medium, containing the test compound, every 48 hours. On the day of harvesting, the cultures were rinsed with 0.03% EDTA in PBS, to remove only the 3T3 fibroblasts, followed by incubation in 0.05% trypsin/0.03% EDTA. The cells were suspended, mixed vigorously to prepare a single cell suspension and counted in a hemocytometer.
Stock solutions of compounds were made up as 10^-2 M solutions in degassed 100% ethanol and stored at -20° C. in the dark. During experimental use, the solutions, which have been aliquoted, were brought to room temperature and used by diluting directly into complete medium to appropriate concentration.
The compounds were tested for the inhibition of proliferation of sebaceous cell growth in vitro at 10^-6, 10^-7 and 10^-8 M.
The results are summarized in Table III below as the amount of compound necessary to inhibit the proliferation of sebaceous cells by 50% (ED50) in nM as compared to a vehicle-treated culture.

pEC50, pIC50: −log10 of the molar value.

In the case of `C[C@H](CC#CC(C)(O)C(F)(F)F)C1=CC[C@H]2/C(=C/C=C3C[C@@H](O)C[C@H](O)C3)CCC[C@]12C` (stereo partly drawn) [1,25(R,S)-Dihydroxy-16-ene-23-yne-26-trifluoro-19-nor-cholecalciferol], the pIC50 with HaCaT cells is 8.29. Besides, in the data set with HL-60 cells, the pEC50 was 9.43. Moreover, the MTD at 120 h in data set [1] is 0.002 mg/kg.
In the same order, the values of `C=C1CC[C@H](O)C/C1=C/C=C1\CCC[C@]2(C)C([C@H](C)CC#CC(C)(O)C(F)(F)F)=CC[C@@H]12` (stereo partly drawn) [25(R,S)-Hydroxy-16-ene-23-yne-26-trifluoro-cholecalciferol] are 6.19, 6.80 and 0.6 mg/kg.
As to `C=C1/C(=C\C=C2/CCC[C@]3(C)C([C@H](C)CC#CC(C)(O)C(F)(F)F)=CC[C@@H]23)C[C@@H](O)C[C@@H]1O` (stereo partly drawn) [1,25(R,S)-Dihydroxy-16-ene-23-yne-26-trifluoro-cholecalciferol], the pIC50 in the data set with HaCaT cells was 8.00; with sebaceous cells, 9.00. Moreover, the pEC50 in the data set with HL-60 cells is 9.82. In data set [1], the MTD at 120 h amounted to 0.001 mg/kg.
Consider `C=C1/C(=C\C=C2/CCC[C@]3(C)[C@@H]([C@H](C)CCCC(C)(C)O)CC[C@@H]23)C[C@@H](O)C[C@@H]1O` [1,25-Dihydroxycholecalciferol, reference compound], for which the pEC50 in the data set with HL-60 cells is 8.10.
In turn, `C=C1/C(=C\C=C2/CCC[C@]3(C)C([C@H](C)CC#CC(C)(O)C(F)(F)F)=CC[C@@H]23)C[C@@H](O)C[C@@H]1F` (stereo partly drawn) [1α-fluoro-25(R,S)-hydroxy-16-ene-23-yne-26-trifluoro-cholecalciferol] had a pIC50 with HaCaT cells of 7.96. The pEC50 with HL-60 cells was 8.43. In addition, the MTD at 120 h in data set [1] came out at 0.02 mg/kg.
